Some test systems named below: DMS-273; KM-20L2; RXF 631; XF498; LXFL 529; M19-MEL; DLD-1; SNB-78; DMS-114.
Holding throughout (experiment): NCI-60 cell line screen, 48 h

SMILES strings stand for the structures.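 These data come from cells grown in 96-well plates and exposed to compound for 48 hours at five concentrations. GI50 = concentration required for 50% inhibition of growth.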 Calls of active or inactive are those of the source. Cut-off read from the data, not from the text of the source: active = GI50 up to about 1.1 µM and inactive = higher. Some results are limits rather than exact numbers.

As to `Cc1cc2c(ccc3c(C)cc(=O)oc32)o1`, the GI50 is > 100 µM (inactive) in the assay on DMS-273; > 100 µM (inactive) in the assay with KM-20L2; > 100 µM (inactive) in the assay with RXF 631; 40.6 µM (inactive) with XF498; > 100 µM (inactive) in the assay with LXFL 529; > 100 µM (inactive) with M19-MEL. Besides, the results for the GI50 in the assay on DLD-1, with SNB-78 and with DMS-114 were > 100 µM (inactive), > 58.5 µM (inactive) and > 100 µM (inactive), respectively.

Consider `Clc1ccc(Nc2nc3ccccc3nc2-c2cccs2)cc1Cl`, for which the GI50 in the assay on DMS-273 was 34 µM (inactive); in the assay with KM-20L2 it was 34.6 µM (inactive); in the assay with RXF 631 it was 27.8 µM (inactive); in the assay on XF498, 62.1 µM (inactive); with LXFL 529, 38.9 µM (inactive); in the assay on M19-MEL, 57.8 µM (inactive). Besides, the figures for the GI50 in the assay on DLD-1 and in the assay on SNB-78 were 36.7 µM (inactive) and 58.2 µM (inactive), respectively.

`CCN(CC)c1c(C(=O)/C=C/c2ccc(F)cc2)c(-c2ccccc2)nn(C)c1=O`: the GI50 was 6.62 µM (inactive) with DMS-273; 11.8 µM (inactive) in the assay with KM-20L2; 4.6 µM (inactive) with LXFL 529; 6.64 µM (inactive) with M19-MEL; 3.63 µM (inactive) with DLD-1; 14.4 µM (inactive) in the assay with SNB-78. Besides, the GI50 in the assay on DMS-114 was 5.32 µM (inactive).

As for `NC1=NN(c2ccccc2)C(=O)C1C(=O)C(=O)Nc1ccc(Cl)c(Cl)c1` (centres undefined), the GI50 with DMS-273, with KM-20L2, in the assay on RXF 631, in the assay with M19-MEL, in the assay with DLD-1 and with SNB-78 was > 100 µM (inactive) throughout. Also, in the assay on DMS-114, the GI50 is > 100 µM (inactive).

As for `CCOC(=O)C1(CC)CCCCC(=O)N1` (centres undefined), the GI50 in the assay with DMS-273, in the assay with KM-20L2, with XF498, in the assay on LXFL 529, with M19-MEL and in the assay with DLD-1 was > 100 µM (inactive) throughout. For the same compound, the GI50 in the assay with SNB-78 and in the assay with DMS-114 was > 100 µM (inactive) in each case.

In the case of `CS(=O)(=O)OCCN1CCN(C(=O)c2ccc(Cl)c3c(Nc4ccc(S(=O)(=O)N=C(N)N)cc4)c4ccccc4nc23)CC1`, the GI50 in the assay on DMS-273, in the assay on KM-20L2, with RXF 631, with XF498, in the assay on M19-MEL and in the assay with DLD-1 was > 100 µM (inactive) each time. Besides, the GI50 in the assay on DMS-114 is > 100 µM (inactive).

Regarding `COc1ccc(C(=O)O[C@H]2[C@@H]3C=CO[C@@H](OC4OC(CO)C(O)C(O)C4O)[C@@H]3[C@@]3(CO)O[C@@H]23)cc1O` (some centres undefined), the GI50 in the assay with DMS-273, in the assay on KM-20L2, in the assay with RXF 631, in the assay with XF498, with LXFL 529 and with M19-MEL was > 100 µM (inactive) in each case. The GI50 in the assay with DLD-1, in the assay on SNB-78 and in the assay with DMS-114 was > 100 µM (inactive) throughout.

With `Cc1c2ccccc2c(=O)n2c(-c3ccccn3)cccc12`, the GI50 in the assay on DMS-273 was > 100 µM (inactive); in the assay on KM-20L2, > 100 µM (inactive); with XF498 it was > 100 µM (inactive); with M19-MEL, 78 µM (inactive); with DLD-1, > 100 µM (inactive); in the assay with SNB-78, > 100 µM (inactive). The GI50 in the assay with DMS-114 is > 100 µM (inactive).

Turning to `CCN(CC)C(=O)Cc1c(C(=O)N(CC)CC)c(=O)nc2sccn12`, the GI50 with DMS-273, with KM-20L2, in the assay with XF498, in the assay with LXFL 529, in the assay on M19-MEL and in the assay with DLD-1 was > 100 µM (inactive) each time. Also, the GI50 with DMS-114 was > 100 µM (inactive).

Regarding `C=Cc1ccc(C)[n+](C[Si](C)(C)O[Si](C)(C)C)c1`, the GI50 in the assay with DMS-273, in the assay with KM-20L2, in the assay with RXF 631, in the assay with LXFL 529, in the assay on DLD-1 and in the assay on SNB-78 was > 100 µM (inactive) in each case. Moreover, the GI50 in the assay with DMS-114 is > 100 µM (inactive).

In the case of `CNC(=O)N(C)/N=N/CCCl`, the GI50 in the assay with DMS-273, in the assay with KM-20L2, in the assay with LXFL 529, in the assay on M19-MEL, in the assay with DLD-1 and in the assay on DMS-114 was > 100 µM (inactive) in each case.

Turning to `CCn1c2ccccc2c2ccc3c(c21)C(=O)C=CC3=O`, the GI50 in the assay on DMS-273 was 17.2 µM (inactive); in the assay on XF498, 3.84 µM (inactive); in the assay on LXFL 529, 1.93 µM (inactive); with M19-MEL, 10.7 µM (inactive); with DLD-1 it was 3.85 µM (inactive); with SNB-78, 22 µM (inactive). In addition, the GI50 with DMS-114 was 6.65 µM (inactive).

`CC1(c2ccccc2)CC(c2cccc([N+](=O)[O-])c2)=NO1` (centres undefined): the GI50 in the assay on DMS-273 was > 100 µM (inactive); with RXF 631 it was > 100 µM (inactive); in the assay with LXFL 529 it was 94.2 µM (inactive); in the assay with M19-MEL, > 100 µM (inactive); in the assay on DLD-1, > 100 µM (inactive); with SNB-78, > 100 µM (inactive). The GI50 in the assay on DMS-114 is 44.2 µM (inactive).

With `CCN(CC)Cc1cc(Nc2ccnc3ccc4nn(C)nc4c23)ccc1O`, the GI50 is 6.89 µM (inactive) in the assay on KM-20L2; 7.78 µM (inactive) in the assay on RXF 631; 11.8 µM (inactive) in the assay on XF498; 12.6 µM (inactive) in the assay with LXFL 529; 11.9 µM (inactive) with M19-MEL; 15.9 µM (inactive) with SNB-78.

As for `C/C1=C\[C@H](C)C[C@H](C)OC(=O)C[C@H](c2ccc(O)cc2)NC(=O)[C@@H](Cc2c(Br)[nH]c3ccccc23)N(C)C(=O)[C@H](C)NC(=O)[C@@H](C)C1` [JASPAMIDE], the GI50 with DMS-273 is 0.308 µM (active); with KM-20L2 it was 0.34 µM (active); in the assay with RXF 631, 0.298 µM (active); in the assay on XF498, 0.226 µM (active); in the assay on LXFL 529, 0.293 µM (active); in the assay on M19-MEL, 0.789 µM (active). Also, the values for the GI50 with DLD-1, in the assay on SNB-78 and in the assay with DMS-114 were 0.843 µM (active), 0.374 µM (active) and 0.516 µM (active), respectively.

For `CSc1ccc2c(cc1=O)[C@@H](NC(=O)c1ccc(Cl)cc1)CCc1cc(O)c(O)c(O)c1-2`, the GI50 is 50.6 µM (inactive) with DMS-273; > 100 µM (inactive) with KM-20L2; 33.3 µM (inactive) with LXFL 529; 31.1 µM (inactive) in the assay on M19-MEL; 26.1 µM (inactive) in the assay with DLD-1; > 100 µM (inactive) in the assay with SNB-78. Also, the GI50 with DMS-114 is 32.4 µM (inactive).

Turning to `COC(=O)c1nc(N)nc(O)c1CCCCCc1c(O)nc(N)nc1C(=O)OC`, the GI50 in the assay on DMS-273, in the assay with KM-20L2, in the assay with RXF 631, in the assay with XF498, in the assay on LXFL 529 and with M19-MEL was > 50 µM (inactive) each time. In addition, the GI50 with DLD-1, in the assay on SNB-78 and with DMS-114 was > 50 µM (inactive) in each case.

Regarding `C=CCC1C(=O)CC2(C)C(CC=C)C(=O)CC12C` (centres undefined), the GI50 in the assay on DMS-273, in the assay with KM-20L2, with RXF 631, in the assay on XF498, in the assay on LXFL 529 and with M19-MEL was > 100 µM (inactive) each time. Moreover, in the assay on DLD-1, the GI50 is > 100 µM (inactive).

Take `Cc1c(O)c(=O)ccn1C1OC(CO)C(O)C1O` (centres undefined): the GI50 with DMS-273 is 82 µM (inactive); in the assay with KM-20L2, 45 µM (inactive); in the assay on XF498, 46.2 µM (inactive); in the assay with LXFL 529 it was > 100 µM (inactive); in the assay on M19-MEL, > 100 µM (inactive); in the assay with DLD-1, 91.8 µM (inactive). For the same compound, the GI50 in the assay on SNB-78 is > 100 µM (inactive).

Take `Cn1c2c(c3ccccc31)CCN(CCN1CCN(c3cccc(Cl)c3)CC1)C2=O`: the GI50 in the assay with DMS-273 is 49.5 µM (inactive); in the assay with KM-20L2, 32.4 µM (inactive); with XF498 it was 3.38 µM (inactive); with LXFL 529 it was 49 µM (inactive); in the assay with M19-MEL, > 100 µM (inactive); with DLD-1, 20.7 µM (inactive). For the same compound, the GI50 in the assay on DMS-114 is 37.4 µM (inactive).

With `COc1ccc2ccnc(Cc3ccc(OCc4ccccc4)c(OC)c3)c2c1`, the GI50 in the assay with KM-20L2 was 34.5 µM (inactive); in the assay on XF498, 10.4 µM (inactive); in the assay on LXFL 529 it was 25.9 µM (inactive); with DLD-1 it was 25.5 µM (inactive); in the assay on SNB-78, 26.2 µM (inactive).

In the case of `COc1cc(C(CC(OC)OC)=C(C#N)C#N)cc(OC)c1OC`, the GI50 in the assay on DMS-273 was 10.4 µM (inactive); in the assay on KM-20L2, 11.4 µM (inactive); in the assay with LXFL 529, 11.4 µM (inactive); with M19-MEL, 12.2 µM (inactive); in the assay with DLD-1, 3.58 µM (inactive); in the assay on SNB-78, 60.4 µM (inactive). Besides, the GI50 with DMS-114 is 20.7 µM (inactive).

As to `c1ccc2c(NCCCCCCNc3cccc4ccccc34)cccc2c1`, the GI50 in the assay on DMS-273, in the assay with KM-20L2, with RXF 631, with XF498, in the assay on LXFL 529 and in the assay on M19-MEL was > 100 µM (inactive) each time. Also, the GI50 is > 100 µM (inactive) with DLD-1, > 100 µM (inactive) in the assay with SNB-78 and 49.1 µM (inactive) in the assay with DMS-114.

(Values after ChEMBL document CHEMBL1201862, “PubChem BioAssay data set” (2004).)
